Results from PubChem BioAssay (NCI).
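Method: 48-hour compound exposure of cells in 96-well plates, five concentrations, linear interpolation of endpoints. GI50 = concentration required for 50% inhibition of growth. TGI: total growth inhibition.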

Key:
Assay in all cases: NCI-60 cell line screen, 48 h; in the data active means GI50 below about 0.43 µM; inactive means the rest
SK-MEL-5 melanoma = system: SK-MEL-5 melanoma
BT-549 breast = system: BT-549 breast
A498 renal = system: A498 renal
ACHN renal = system: ACHN renal
COLO 205 colon = system: COLO 205 colon
SNB-75 CNS = system: SNB-75 CNS
NCI-H522 lung = system: NCI-H522 lung
SNB-19 CNS = system: SNB-19 CNS
UACC-257 melanoma = system: UACC-257 melanoma
NCI-H23 lung = system: NCI-H23 lung
OVCAR-3 ovarian = system: OVCAR-3 ovarian
SK-MEL-28 melanoma = system: SK-MEL-28 melanoma
SR leukemia = system: SR leukemia
MDA-MB-231 breast = system: MDA-MB-231 breast
UO-31 renal = system: UO-31 renal
HCC-2998 colon = system: HCC-2998 colon
SF-539 CNS = system: SF-539 CNS
MDA-MB-435 = system: MDA-MB-435
OVCAR-5 ovarian = system: OVCAR-5 ovarian
786-0 renal = system: 786-0 renal
UACC-62 melanoma = system: UACC-62 melanoma
A549 NSCLC = system: A549 NSCLC
EKVX NSCLC = system: EKVX NSCLC
PC-3 prostate = system: PC-3 prostate
NCI/ADR-RES ovarian = system: NCI/ADR-RES ovarian
TK-10 renal = system: TK-10 renal
MCF7 breast = system: MCF7 breast
OVCAR-4 ovarian = system: OVCAR-4 ovarian
MALME-3M melanoma = system: MALME-3M melanoma
KM12 colon = system: KM12 colon
SK-OV-3 ovarian = system: SK-OV-3 ovarian
SW-620 colon = system: SW-620 colon
M14 melanoma = system: M14 melanoma
SK-MEL-2 melanoma = system: SK-MEL-2 melanoma
MOLT-4 leukemia = system: MOLT-4 leukemia
LOX IMVI melanoma = system: LOX IMVI melanoma
NCI-H460 lung = system: NCI-H460 lung
HOP-62 NSCLC = system: HOP-62 NSCLC
HT29 colon = system: HT29 colon
K-562 leukemia = system: K-562 leukemia
HOP-92 NSCLC = system: HOP-92 NSCLC
IGROV1 ovarian = system: IGROV1 ovarian
T-47D breast = system: T-47D breast
SN12C renal = system: SN12C renal
DU-145 prostate = system: DU-145 prostate
HS 578T breast = system: HS 578T breast
RPMI-8226 leukemia = system: RPMI-8226 leukemia
HL-60(TB) leukemia = system: HL-60(TB) leukemia
NCI-H226 lung = system: NCI-H226 lung
OVCAR-8 ovarian = system: OVCAR-8 ovarian
CCRF-CEM leukemia = system: CCRF-CEM leukemia
HCT-116 colon = system: HCT-116 colon
HCT-15 colon = system: HCT-15 colon
CAKI-1 renal = system: CAKI-1 renal
U251 CNS = system: U251 CNS
SF-295 CNS = system: SF-295 CNS
SF-268 CNS = system: SF-268 CNS
RXF 393 renal = system: RXF 393 renal

COc1ccc2c(c1)C(=O)/C(=C/c1ccc(OCC(=O)Nc3nccs3)cc1)O2
34.4 µM: TGI (NCI-H460 lung)
13.5 µM: TGI (M14 melanoma)
1.15 µM: TGI (SR leukemia)
14.5 µM: TGI (OVCAR-4 ovarian)
0.361 µM: TGI (SF-539 CNS)
15.3 µM: TGI (BT-549 breast)
46.8 µM: TGI (MDA-MB-435)
9.38 µM: TGI (SNB-75 CNS)
0.398 µM: TGI (OVCAR-3 ovarian)
31.9 µM: TGI (T-47D breast)
18.8 µM: TGI (KM12 colon)
23.2 µM: TGI (UACC-62 melanoma)
26 µM: TGI (HOP-62 NSCLC)
19.9 µM: TGI (NCI-H23 lung)
inactive: GI50 (SK-MEL-5 melanoma) 2.93 µM | GI50 (BT-549 breast) 3.86 µM | GI50 (A498 renal) 7.99 µM | GI50 (ACHN renal) 2.67 µM | GI50 (COLO 205 colon) 0.979 µM | GI50 (SNB-75 CNS) 0.629 µM | GI50 (SNB-19 CNS) 20.4 µM | GI50 (UACC-257 melanoma) 18 µM | GI50 (NCI-H23 lung) 0.711 µM | GI50 (SK-MEL-28 melanoma) 12.7 µM | GI50 (MDA-MB-231 breast) 0.748 µM | GI50 (HCC-2998 colon) 15.2 µM | GI50 (MDA-MB-435) 10.7 µM | GI50 (OVCAR-5 ovarian) 1.79 µM | GI50 (UACC-62 melanoma) 9.71 µM | GI50 (A549 NSCLC) 1.76 µM | GI50 (EKVX NSCLC) 2.04 µM | GI50 (NCI/ADR-RES ovarian) 27.3 µM | GI50 (TK-10 renal) 3.39 µM | GI50 (MCF7 breast) 5.75 µM | GI50 (OVCAR-4 ovarian) 2.26 µM | GI50 (MALME-3M melanoma) 0.858 µM | GI50 (KM12 colon) 0.431 µM | GI50 (SK-OV-3 ovarian) 17.4 µM | GI50 (SW-620 colon) 2.88 µM | GI50 (M14 melanoma) 3.03 µM | GI50 (MOLT-4 leukemia) 2.09 µM | GI50 (NCI-H460 lung) 15.5 µM | GI50 (HOP-62 NSCLC) 0.491 µM | GI50 (HT29 colon) 5.31 µM | GI50 (K-562 leukemia) 1.84 µM | GI50 (T-47D breast) 7.05 µM | GI50 (SN12C renal) 2.51 µM | GI50 (DU-145 prostate) 0.504 µM | GI50 (HS 578T breast) 9.23 µM | GI50 (RPMI-8226 leukemia) 0.439 µM | GI50 (NCI-H226 lung) 12.8 µM | GI50 (OVCAR-8 ovarian) 17.2 µM | GI50 (HCT-116 colon) 2.75 µM | GI50 (HCT-15 colon) 4.51 µM | GI50 (U251 CNS) 0.598 µM
34.8 µM: TGI (NCI-H226 lung)
5.73 µM: TGI (DU-145 prostate)
18.9 µM: TGI (SN12C renal)
5.78 µM: TGI (MDA-MB-231 breast)
26.3 µM: TGI (SK-MEL-28 melanoma)
> 63.8 µM: TGI (HS 578T breast)
16.3 µM: TGI (SK-MEL-5 melanoma)
4.56 µM: TGI (RPMI-8226 leukemia)
16 µM: TGI (A549 NSCLC)
0.036 µM: TGI (IGROV1 ovarian)
20.5 µM: TGI (ACHN renal)
> 95.4 µM: TGI (SK-OV-3 ovarian)
4.15 µM: TGI (MALME-3M melanoma)
0.413 µM: TGI (HL-60(TB) leukemia)
active: GI50 (NCI-H522 lung) 0.191 µM | GI50 (OVCAR-3 ovarian) 0.204 µM | GI50 (SR leukemia) 0.27 µM | GI50 (UO-31 renal) 0.215 µM | GI50 (SF-539 CNS) 0.184 µM | GI50 (786-0 renal) 0.237 µM | GI50 (PC-3 prostate) 0.264 µM | GI50 (SK-MEL-2 melanoma) 0.231 µM | GI50 (LOX IMVI melanoma) 0.057 µM | GI50 (HOP-92 NSCLC) 0.161 µM | GI50 (IGROV1 ovarian) 0.0169 µM | GI50 (HL-60(TB) leukemia) 0.187 µM | GI50 (CCRF-CEM leukemia) 0.183 µM | GI50 (CAKI-1 renal) 0.392 µM
36.6 µM: TGI (UACC-257 melanoma)
0.588 µM: TGI (SK-MEL-2 melanoma)
10.2 µM: TGI (OVCAR-5 ovarian) | TGI (SW-620 colon)
0.563 µM: TGI (786-0 renal)
0.369 µM: TGI (HOP-92 NSCLC)
5.09 µM: TGI (COLO 205 colon)
31.7 µM: TGI (HCC-2998 colon)
0.374 µM: TGI (UO-31 renal)
> 100 µM: TGI (NCI/ADR-RES ovarian) | TGI (MOLT-4 leukemia)
> 65.7 µM: TGI (SNB-19 CNS)
26.2 µM: TGI (A498 renal)
10.7 µM: TGI (HCT-116 colon)
2.17 µM: TGI (PC-3 prostate)
18 µM: TGI (MCF7 breast)
> 60.5 µM: TGI (OVCAR-8 ovarian)
0.108 µM: TGI (LOX IMVI melanoma)
17.8 µM: TGI (TK-10 renal) | TGI (HCT-15 colon)
0.393 µM: TGI (NCI-H522 lung)
29.2 µM: TGI (HT29 colon)
22.4 µM: TGI (U251 CNS)

O=C(O)CCC(NC(=O)c1ccc(OCc2nc3cc(C(F)(F)F)ccc3nc2-c2ccccc2)cc1)C(=O)O (stereo not given)
> 100 µM: TGI (A498 renal) | TGI (ACHN renal) | TGI (COLO 205 colon) | TGI (SNB-75 CNS) | TGI (NCI-H522 lung) | TGI (SNB-19 CNS) | TGI (UACC-257 melanoma) | TGI (NCI-H23 lung) | TGI (OVCAR-3 ovarian) | TGI (SK-MEL-28 melanoma) | TGI (SR leukemia) | TGI (MDA-MB-231 breast) | TGI (UO-31 renal) | TGI (HCC-2998 colon) | TGI (SF-539 CNS) | TGI (MDA-MB-435) | TGI (OVCAR-5 ovarian) | TGI (786-0 renal) | TGI (UACC-62 melanoma) | TGI (A549 NSCLC) | TGI (EKVX NSCLC) | TGI (PC-3 prostate) | TGI (NCI/ADR-RES ovarian) | TGI (TK-10 renal) | TGI (MCF7 breast) | TGI (SF-295 CNS) | TGI (OVCAR-4 ovarian) | TGI (MALME-3M melanoma) | TGI (KM12 colon) | TGI (SK-OV-3 ovarian) | TGI (SW-620 colon) | TGI (M14 melanoma) | TGI (SK-MEL-2 melanoma) | TGI (MOLT-4 leukemia) | TGI (SF-268 CNS) | TGI (LOX IMVI melanoma) | TGI (NCI-H460 lung) | TGI (HOP-62 NSCLC) | TGI (HT29 colon) | TGI (K-562 leukemia) | TGI (HOP-92 NSCLC) | TGI (IGROV1 ovarian) | TGI (T-47D breast) | TGI (SN12C renal) | TGI (DU-145 prostate) | TGI (RXF 393 renal) | TGI (HL-60(TB) leukemia) | TGI (NCI-H226 lung) | TGI (OVCAR-8 ovarian) | TGI (CCRF-CEM leukemia) | TGI (HCT-116 colon) | TGI (HCT-15 colon) | TGI (CAKI-1 renal) | TGI (U251 CNS)
